How the values were obtained:
[1] = tested on: A549 (lung adenocarcinoma); assay: MTS cytotoxicity assay, 72 h, A549; assay type: cell-based; conditions: Homo sapiens, A549, 72 h
Procedure, shortened: (§1)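 Treatment ran 72 h at 37 °C under 5% CO2, starting the day after plating, across 50–0.0975 μmol/L (dilution factor 2). Metabolic conversion of MTS was read at 490 nm to obtain IC50.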

DU-145 (prostate cancer) = assay: MTS cytotoxicity assay, 72 h, DU-145; assay type: cell-based, human; conditions: Homo sapiens, DU-145, 72 h, Table 1
Procedure, shortened: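 Absorbance at 490 nm after 1–4 h with MTS/phenazine methosulfate gave viability, from which IC50 was calculated. Compounds were tested over 50–0.0975 μmol/L (2-fold series). DU145 was seeded at 15,000 cells/mL in RPMI 1640 with 10% FBS.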

HCT 116 = assay: MTS cytotoxicity assay, 72 h, HCT 116; assay type: cell-based; conditions: Homo sapiens, HCT-116, 72 h
Procedure, shortened: as §1

CCRF-CEM = assay: MTS cytotoxicity assay, 72 h, CCRF-CEM; assay type: cell-based; conditions: Table 1; for IC50: Homo sapiens, CCRF-CEM, 72 h, MTS; for SI (selectivity index): IC50 of CCRF-CEM line vs average of both fibroblasts (BJ and MRC-5)
Procedure, shortened: as §1

[2] = tested on: Gli1 protein in DU-145 cells; assay: Western blot of Gli1 in DU-145 cells, 24 h; assay type: cell-based, human; conditions: DU-145, 24 h, immunoblot
Experimental: In order to verify that compounds 11a and 11b inhibit the proliferation of A549 and DU-145 through Hh inhibition, we monitored the expression of Hh target genes in these cell lines (Figure 2). […] The decreased protein expression of Gli1 targets Cyclin D1, N-Myc, and Bcl-2 strongly indicates inhibition of its transcriptional activity, and their downregulation correlates with the data obtained by the U-87 MG-Gli-FLuc reporter assay. Importantly, these proteins are involved in cell cycle progression, proliferation, and survival. N-Myc amplification or deregulation of transcription, stability, and degradation is associated with many malignancies,[34] and the observed downregulation induced by 11a and 11b may reduce its oncogenic effect.
Figure 2 Effect of compounds 11a and 11b on the protein expression of the Gli1 transcription factor and its transcriptional targets in A549 (A) and DU145 (B) cells following 24 h of incubation. […]
Cells were washed with PBS and lysed on ice in 200 μL of RIPA (Radioimmunoprecipitation Assay) buffer for 30 min. Then, cell lysates were clarified by centrifugation (15000 rpm, 20 min, 4 °C), and the protein concentration in the collected supernatants was determined using a BCA method (Bicinchoninic Acid test). […] Luminescence signal detection was performed by using an Odyssey FC instrument (LI-COR Biosciences).

Plasma stability = assay type: in vitro ADME; conditions: human plasma
[3] = Plasma protein binding, Rapid Equilibrium Dialysis; assay type: in vitro ADME; conditions: read-out: Plasma protein binding % Fraction bound (converted)
Experimental: Data from a plasma protein binding study can inform about distribution into tissues of the body and reduction in the amount of drug available to be metabolized or cleared from the body. The measurement of plasma protein binding was performed using a Rapid Equilibrium Dialysis device; 11a and 11b compounds reported a percent of fraction bound around 90%. For the microsomal stability assay, human liver microsomes and NADPH cofactor were used to assess phase I oxidation by cytochrome P450 and flavin monooxygenases. The intrinsic clearance calculated from the microsomal stability assay indicated the medium category for both derivatives (Table 3).

| Compound | IC50 ([1]; Table 1) [µM] | IC50 ([1]; full Table S1) [µM] | IC50 (DU-145 (prostate cancer)) [µM] | IC50 (HCT 116; Table 1) [µM] | IC50 (HCT 116; full Table S1) [µM] | IC50 (CCRF-CEM) [µM] | SI (selectivity index) (CCRF-CEM) | Endogenous Gli1 protein level [2] | Plasma stability % Compound remaining 15 min (Plasma stability) [%] | Plasma stability % Compound remaining 30 min (Plasma stability) [%] | Plasma stability % Compound remaining 60 min (Plasma stability) [%] | fraction unbound [3] |
| --- | --- | --- | --- | --- | --- | --- | --- | --- | --- | --- | --- | --- |
| C=C(C)[C@@H]1CC[C@]2(C(=O)O)CC[C@]3(C)C(CCC4[C@@]5(C)C=C(c6ccco6)C(=O)C(C)(C)C5CC[C@]43C)C12 (stereo partly drawn) [Compound 11a, 2-(Furan-2-yl)-3-oxolupa-1,20(29)-dien-28-oic acid] | 12 | 12.1 | 7.9 | 11 | 11.4 | 8.7 | 3.8 | inhibit the endogenous Gli1 protein level in a dose-dependent manner | 103 | 100 | 95 | ~0.1 |
| C=C(C)[C@@H]1CC[C@]2(C(=O)O)CC[C@]3(C)C(CCC4[C@@]5(C)C=C(c6ccoc6)C(=O)C(C)(C)C5CC[C@]43C)C12 (stereo partly drawn) [Compound 11b, 2-(Furan-3-yl)-3-oxolupa-1,20(29)-dien-28-oic acid] | 12 | 12.1 | 5.7 | 20 | 19.9 | 6 | 5 | inhibit the endogenous Gli1 protein level in a dose-dependent manner | 103 | 104 | 103 | ~0.1 |
